Measured values: US10420812B2, “Drug combinations and uses in treating a coughing condition” (Infirst Healthcare Limited, priority 2009, dated 2019)
“And” between values parts separate entries of the source, which are not always exact repeats. Equal entries are not always repeated.

What was measured:
[1] = test system: citric acid induced cough responses; test: Citric acid induced cough, theobromine and neuropathic pain agent (Example 9)
[2] = test system: citric acid induced cough responses; test: Citric acid induced cough, theobromine and expectorant (Example 7)
cough = settings: clinical treatment; apparent success attributed to placebo effect (Ramsey et al.); cited from earlier work
[3] = test system: citric acid induced cough responses; test: Citric acid induced cough, oral theobromine (Example 1); assay type: in vivo, guinea pig; settings: 120 min prior to citric acid exposure
[4] = test system: citric acid induced cough responses; test: Citric acid induced cough, theobromine and opiate antitussive agent (Example 4); assay type: in vivo, guinea pig
[5] = test system: citric acid induced cough responses; test: Citric acid induced cough, theobromine and decongestant (Example 5); assay type: in vivo, guinea pig
coughing condition = test: Treatment of a coughing condition, patient cases (Example 12); assay type: in vivo, human; settings: person, after about 2 days
[6] = test system: citric acid induced cough responses; test: Citric acid induced cough, theobromine and NSAID (Example 8)
[7] = test system: citric acid induced cough responses; test: Citric acid induced cough, theobromine and terpene (Example 10)
[8] = test system: citric acid induced cough responses; test: Citric acid induced cough, theobromine and antihistamine (Example 6)
[9] = test system: citric acid induced cough responses; test: Citric acid induced cough, theobromine and ACE inhibitor (Example 11)
[10] = test system: citric acid induced cough responses; test: Citric acid induced cough, oral and intratracheal theobromine (Example 2); settings: 30 min prior
[11] = test system: citric acid induced cough responses; test: Citric acid induced cough, theobromine and non-opiate antitussive agent (Example 3)
[12] = test system: citric acid induced cough; settings: guinea-pigs (Minamizawa et al. 2006); cited from earlier work
[13] = gabapentin 60 mg/kg p.o. only, 60 min prior
[14] = guaifenesin 30 mg/kg p.o., 60 min prior
[15] = theobromine 7 mg/kg p.o., 120 min prior
[16] = theobromine 10 mg/kg p.o., 120 min prior
[17] = theobromine 10 mg/kg p.o., 30 min prior
[18] = theobromine 30 mg/kg p.o., 120 min prior
[19] = captopril 30 mg/kg p.o., 120 min prior
[20] = codeine 25 mg/kg i.p., 30 min prior
[21] = ibuprofen 30 mg/kg p.o. only, 60 min prior

## NCC1(CC(=O)O)CCCCC1 [Gabapentin]
[1]; [13]
  onset time to the first cough: 90 ± 6 s
  total number of coughs: 24±8 coughs

## COc1ccccc1OCC(O)CO (stereo not drawn) [guaifenesin]
[2]; [14]
  Cough Events Mean Number: 28 ± 3 coughs
  Cough Events Mean Onset Time: 52 ± 10 s

## COc1ccc2c(c1)[C@]13CCCC[C@@H]1[C@H](C2)N(C)CC3 [Dextromethorphan]
cough
  efficacy in treating cough: no efficacy

## Cn1cnc2c1c(=O)[nH]c(=O)n2C [theobromine, 3,7-dihydro-3,7-dimethyl-1H-purine-2,6-dione]
[3]; theobromine 3 mg/kg p.o.
  Cough Events Mean Number: 25 ± 4 coughs
  Cough Events Mean Onset Time: 73 ± 17 s
[3]; theobromine 7 mg/kg p.o.
  Cough Events Mean Number: 18 ± 3 coughs
  Cough Events Mean Onset Time: 98 ± 36 s
[4]; [15]
  Cough Events Mean Number: 19 ± 3 coughs
  Cough Events Mean Onset Time: 91 ± 13 s
[5]; [16]
  Cough Events Mean Number: 13 ± 3 coughs
  Cough Events Mean Onset Time: 156 ± 15 s
Coughing condition; cough as side-effect of ACE inhibitor medication, theobromine in conjunction with the ACE inhibitor
  coughing episodes as indicated by patient: decreased coughing episodes
Coughing condition; cough due to angiotensin II receptor antagonist medication, theobromine in conjunction with it
  coughing episodes as indicated by patient: decreased coughing episodes
[6]; [16]
  number of citric acid induced coughs: 15±3 coughs
  onset time to the first cough: 113 ± 15 s
[7]; [16]
  number of citric acid induced coughs: 14±5 coughs
  onset time to the first cough: 120 ± 23 s
[2]; [17]
  Cough Events Mean Number: 15 ± 3 coughs
  Cough Events Mean Onset Time: 126 ± 12 s
[8]; [16]
  Cough Events Mean Number: 15 ± 2 coughs
  Cough Events Mean Onset Time: 103 ± 15 s
[9]; [18]
  number of citric acid induced coughs: 10±4 coughs
  onset time to the first cough: 125 ± 22 s
[10]; theobromine 3 mg/kg i.t.
  Cough Events Mean Number: 17 ± 2 coughs
  Cough Events Mean Onset Time: 115 ± 29 s
[10]; theobromine 10 mg/kg i.t.
  Cough Events Mean Number: 10.3±2 coughs and 10 ± 2 coughs
  Cough Events Mean Onset Time: 134 ± 18 s
[10]; theobromine 30 mg/kg i.t.
  Cough Events Mean Number: 6 ± 1 coughs
  Cough Events Mean Onset Time: 210 ± 22 s
[10]; theobromine 30 mg/kg p.o.
  Cough Events Mean Number: 12 ± 2 coughs
  Cough Events Mean Onset Time: 126 ± 20 s
[1]; [16]
  number of citric acid induced coughs: 14±4 coughs
  onset time to the first cough: 108 ± 19 s
[11]; [16]
  Cough Events Mean Number: 13 ± 2 coughs
  Cough Events Mean Onset Time: 139 ± 22 s

## C[C@H](CS)C(=O)N1CCC[C@H]1C(=O)O [captopril]
[9]; [19]
  onset time to the first cough: 34 ± 12 s
  total number of coughs: 45±12 coughs

## COc1ccc2c3c1O[C@H]1[C@@H](O)C=C[C@H]4[C@@H](C2)N(C)CC[C@@]341 [codeine]
[4]; [20]
  Cough Events Mean Number: 6 ± 1 coughs
  Cough Events Mean Onset Time: 195 ± 33 s
[5]; [20]
  Cough Events Mean Number: 6 ± 1 coughs
  Cough Events Mean Onset Time: 195 ± 25 s
[6]; [20]
  number of citric acid induced coughs: 8±3 coughs
  onset time to the first cough: 150 ± 32 s
[7]; [20]
  number of citric acid induced coughs: 6±2 coughs
  onset time to the first cough: 170 ± 28 s
[8]; [20]
  Cough Events Mean Number: 5 ± 1 coughs
  Cough Events Mean Onset Time: 236 ± 22 s
[9]; [20]
  number of citric acid induced coughs: 7±3 coughs
  onset time to the first cough: 170 ± 28 s
[10]; codeine 25 mg/kg i.p.
  Cough Events Mean Number: 5 ± 1 coughs
  Cough Events Mean Onset Time: 337 ± 51 s
[1]; [20]
  number of citric acid induced coughs: 9±4 coughs
  onset time to the first cough: 161 ± 31 s
[11]; [20]
  Cough Events Mean Number: 7 ± 2 coughs
  Cough Events Mean Onset Time: 170 ± 32 s

## CN[C@@H](C)[C@@H](O)c1ccccc1 [pseudoephedrine]
[12]
  efficacy in the citric acid induced cough model: very limited efficacy

## CC(C)Cc1ccc(C(C)C(=O)O)cc1 (stereo not drawn) [Ibuprofen]
[6]; [21]
  onset time to the first cough: 70 ± 5 s
  total number of coughs: 22±6 coughs
